Test results: PMC7695835, “Pharmacological characterisation of novel adenosine A3 receptor antagonists” (Scientific Reports, 2020)

How the values were obtained:
rat A3R = target: T1, rat A3R (Rattus norvegicus, UniProt P28647); assay: NanoBRET ligand-binding, Nluc-rat A3R HEK 293 cells, AV039 tracer; details: for binding at rat A3R: no binding detected below the concentration of 10 μM; for pKi: rat A3R, 100 nM AV039, BRET ratio at 5 minutes, Cheng-Prusoff
T1 sequence (P28647 1-320): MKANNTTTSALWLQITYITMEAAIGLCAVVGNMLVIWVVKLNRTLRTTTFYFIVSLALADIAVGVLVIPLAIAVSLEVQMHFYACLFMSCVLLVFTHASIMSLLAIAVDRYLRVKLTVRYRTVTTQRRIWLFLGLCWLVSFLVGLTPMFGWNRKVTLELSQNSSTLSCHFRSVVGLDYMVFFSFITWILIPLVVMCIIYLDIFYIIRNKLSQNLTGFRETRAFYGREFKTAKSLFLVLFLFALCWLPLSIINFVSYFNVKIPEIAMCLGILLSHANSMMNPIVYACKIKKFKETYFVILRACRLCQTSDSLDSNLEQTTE

A3R [1] = target: T2, A3R (Homo sapiens, UniProt P0DMS8); details: for cAMP accumulation Mean: 10 μM forskolin + NECA IC80 (3.16 nM) + 1 μM compound, mean ± SEM, n = 3; for cAMP accumulation Mean difference between 'NECA' and compound: 10 μM forskolin + NECA IC80 + 1 μM compound; for outcome of cAMP-based screen: 1 μM compound
T2 sequence (P0DMS8 1-318): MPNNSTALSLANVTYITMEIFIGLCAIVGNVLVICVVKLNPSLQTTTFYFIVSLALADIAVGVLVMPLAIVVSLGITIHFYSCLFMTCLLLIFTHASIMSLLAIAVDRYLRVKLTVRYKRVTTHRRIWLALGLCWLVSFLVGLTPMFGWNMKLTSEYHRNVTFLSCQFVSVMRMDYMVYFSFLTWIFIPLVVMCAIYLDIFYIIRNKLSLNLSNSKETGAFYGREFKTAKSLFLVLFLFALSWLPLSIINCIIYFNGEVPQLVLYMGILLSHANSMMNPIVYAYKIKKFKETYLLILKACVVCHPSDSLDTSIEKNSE

A3R [2] = target: T2, A3R; details: 1 nM [3H]HEMADO; ref Lagarias et al.[19]; read-out: Radioligand binding Ki A3R; cited from earlier work
A1R = target: T3, A1R (Homo sapiens, UniProt P30542); set-up: method as in Lagarias et al.[19]; details: 1 nM [3H]CCPA; ref Lagarias et al.[19]; read-out: Radioligand binding Ki A1R; cited from earlier work
T3 construct: expressed in transfected cells
T3 sequence (P30542 1-326): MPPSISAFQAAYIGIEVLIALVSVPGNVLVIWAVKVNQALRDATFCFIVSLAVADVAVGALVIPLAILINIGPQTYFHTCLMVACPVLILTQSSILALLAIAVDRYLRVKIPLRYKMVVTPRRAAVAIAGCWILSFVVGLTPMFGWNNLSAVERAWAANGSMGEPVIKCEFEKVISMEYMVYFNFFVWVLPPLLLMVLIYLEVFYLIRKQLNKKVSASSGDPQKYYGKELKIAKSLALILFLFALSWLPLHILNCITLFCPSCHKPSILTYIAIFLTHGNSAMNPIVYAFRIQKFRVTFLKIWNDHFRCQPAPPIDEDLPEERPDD

A2AR = target: T4, A2AR (Homo sapiens, UniProt P29274); set-up: method as in Lagarias et al.[19]; details: 10 nM [3H]NECA; ref Lagarias et al.[19]; read-out: Radioligand binding Ki A2AR; cited from earlier work
T4 construct: expressed in transfected cells; host or cells: CHO cells, membrane preparation
T4 sequence (P29274 whole entry): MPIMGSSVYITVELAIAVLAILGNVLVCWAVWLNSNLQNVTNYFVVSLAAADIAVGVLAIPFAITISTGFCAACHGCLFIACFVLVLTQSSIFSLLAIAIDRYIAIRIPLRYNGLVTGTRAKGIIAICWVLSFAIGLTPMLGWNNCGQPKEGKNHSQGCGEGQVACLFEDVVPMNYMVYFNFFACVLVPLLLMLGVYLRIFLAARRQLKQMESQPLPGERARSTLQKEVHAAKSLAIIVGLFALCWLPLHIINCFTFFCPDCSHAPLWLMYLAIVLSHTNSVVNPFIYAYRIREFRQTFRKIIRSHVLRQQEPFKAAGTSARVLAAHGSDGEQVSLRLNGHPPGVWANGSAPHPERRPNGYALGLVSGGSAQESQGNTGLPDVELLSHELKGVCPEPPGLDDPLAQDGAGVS

A3R [3] = target: T2, A3R; assay: NECA stimulated cAMP inhibition in A3R Flp-In CHO cells; assay type: cell-based; details: for Span: difference between Emin and basal; for Emin: lower plateau of NECA curve; for effect on NECA potency / antagonism: 1 μM compound; for effect on NECA potency / antagonism / effect on NECA potency: preliminary data; for Basal: upper plateau of NECA curve; for effect on NECA potency: 10 μM compound
[4] = 1 µM compound + 10 µM forskolin only
[5] = 10 µM compound + 10 µM forskolin only

cAMP accumulation Mean (A3R [1])	cAMP accumulation Mean difference between 'NECA' and compound (A3R [1])	Structure (SMILES)	Ki (A3R [2])	Ki (A1R)	Ki (A2AR)	further results
		COc1ccc(-n2nc3c(NC(=O)CCC(=O)NCCOCCOCCNC(=O)CCCCCNC(=O)COc4ccc(/C=C/C5=[N+]6C(=Cc7ccc(-c8cccs8)n7[B-]6(F)F)C=C5)cc4)nc4ccccc4n3c2=O)cc1 [AV039, reference compound]				Kd (rat A3R; read-out: KD (saturation binding), fluorescent tracer at Nluc-rat A3R): 0.102 ± 0.00759 µM
68.28 ±2.94 %10 μM forskolin response	-7.96 %10 μM forskolin response	COc1ccc(CSC(=N)Nc2ccccc2Cl)cc1.Cl [Compound K2]	16.6 µM	> 100 µM	61.3 µM	
63.37 ±2.66 %10 μM forskolin response	-3.05 %10 μM forskolin response	NC(=NOC(=O)c1csnn1)c1ccc(-c2csnn2)cc1 [Compound K3]	> 100 µM	> 100 µM	> 100 µM	
59.06 ±0.13 %10 μM forskolin response	1.26 %10 μM forskolin response	NC(=NNC(=O)Nc1ccc(Cl)cc1)c1ccc(C(F)(F)F)cn1 [Compound K4]	> 100 µM	> 100 µM	> 100 µM	
		Cc1nc(C(N)=NOC(=O)c2c(-c3ccccc3)noc2C)cs1 [Compound K5]		> 100 µM	21.8 µM	
64.01 ±5.22 %10 μM forskolin response	-3.69 %10 μM forskolin response	O=C(Nc1ccc(OC(F)(F)F)cc1)Nc1cc(-c2cccs2)n[nH]1 [Compound K6]	30.6 µM	> 100 µM	> 100 µM	
		Cc1onc(-c2ccccc2Cl)c1C(=O)O/N=C(\N)c1ccc(I)cc1 [Compound K9]		6.91 µM	> 100 µM	
		Cc1onc(-c2ccccc2Cl)c1C(=O)O/N=C(\N)c1cccnc1 [Compound K10]		> 60 µM	> 60 µM	binding at rat A3R (rat A3R): very weak binding; pKi (rat A3R): 4.19 ± 0.09
		Cc1onc(-c2ccccc2Cl)c1C(=O)O/N=C(\N)c1ccncc1 [Compound K11]		> 60 µM	30 µM	
59.66 ±0.98 %10 μM forskolin response	0.66 %10 μM forskolin response	Nc1sccc1C(=O)NCCc1ccccc1 [Compound K12]	37.1 µM	> 100 µM	> 60 µM	
56.25 ±1.44 %10 μM forskolin response	4.07 %10 μM forskolin response	COc1ccc(CCNC(=O)c2c(N)sc3c2CCC3)cc1OC [Compound K13]	16.5 µM	> 30 µM	> 60 µM	
61.09 ±3.04 %10 μM forskolin response	-0.77 %10 μM forskolin response	COc1ccc(CCNC(=O)c2c(N)sc3c2CCCC3)cc1OC [Compound K14]	14.8 µM	> 30 µM	> 60 µM	
		Cc1cccc(/C(N)=N/OC(=O)c2c(-c3ccccc3Cl)noc2C)c1 [Compound K15]		> 100 µM	> 100 µM	
51.51 ±4.91 %10 μM forskolin response	8.81 %10 μM forskolin response	NNC(=O)c1sc(-c2ccccc2)cc1N [Compound K16]	19.7 µM	> 30 µM	31.7 µM	
		Cc1nc(C(N)=NOC(=O)c2c(-c3ccccc3Cl)noc2C)cs1 [Compound K17]		> 30 µM	> 60 µM	binding at rat A3R (rat A3R): very weak binding; pKi (rat A3R): 4.60 ± 0.09
64.58 ±4.94 %10 μM forskolin response	-4.26 %10 μM forskolin response	COc1ccccc1N=C(N)SCc1ccccc1 [Compound K19]	> 100 µM	> 100 µM	> 100 µM	
73.54 ±2.98 %10 μM forskolin response	-13.22 %10 μM forskolin response	COc1cccc(C=NNC(=O)c2cc(-c3ccccc3)sc2N)c1 [Compound K21]	5.77 µM	> 100 µM	3.93 µM	True Basal (A3R [3]; [4]): 101.6 ±5.1; Span (A3R [3]; 1 µM compound): 119.4 ±9.4; Emin (A3R [3]; 1 µM compound): 2.0 ±7.6 % 10 µM forskolin response relative to NECA response; effect on NECA potency / antagonism (A3R [3]): no effect; Basal (A3R [3]; 1 µM compound): 121.5 ±6.1 % 10 µM forskolin inhibition, relative to NECA; True Basal (A3R [3]; [5]): 118.6 ±4.8; Span (A3R [3]; 10 µM compound): 104.6 ±7.7; Emin (A3R [3]; 10 µM compound): 30.1 ±6.8 % 10 µM forskolin response relative to NECA response; effect on NECA potency (A3R [3]): reduce the NECA potency; Basal (A3R [3]; 10 µM compound): 134.7 ±4.3 % 10 µM forskolin inhibition, relative to NECA; outcome of cAMP-based screen (A3R [1]): no activity
70.56 ±3.64 %10 μM forskolin response	-10.24 %10 μM forskolin response	Nc1sc(-c2ccccc2)cc1C(=O)NN=Cc1ccccc1 [Compound K22]	5.16 µM	15.2 µM	4.59 µM	True Basal (A3R [3]; [4]): 101.9 ±8.4; Span (A3R [3]; 1 µM compound): 120.9 ±8.8; Emin (A3R [3]; 1 µM compound): 0.4 ±7.1 % 10 µM forskolin response relative to NECA response; effect on NECA potency / antagonism (A3R [3]): no effect; Basal (A3R [3]; 1 µM compound): 121.3 ±5.8 % 10 µM forskolin inhibition, relative to NECA; True Basal (A3R [3]; [5]): 124.5 ±8.2; Span (A3R [3]; 10 µM compound): 97.5 ±8.0; Emin (A3R [3]; 10 µM compound): 41.6 ±7.1 % 10 µM forskolin response relative to NECA response; effect on NECA potency (A3R [3]): reduce the NECA potency; Basal (A3R [3]; 10 µM compound): 139.1 ±4.2 % 10 µM forskolin inhibition, relative to NECA; outcome of cAMP-based screen (A3R [1]): no activity
51.39 ±3.11 %10 μM forskolin response	8.93 %10 μM forskolin response	CC(C)(C)c1ccc(/C(N)=N/OC(=O)c2cnn(-c3ccccc3)c2C(F)(F)F)cc1 [Compound K24]	5.39 µM	7.48 µM	> 100 µM	True Basal (A3R [3]; [4]): 103.6 ±7.7; Span (A3R [3]; 1 µM compound): 103.7 ±7.9; Emin (A3R [3]; 1 µM compound): 5.9 ±6.5 % 10 µM forskolin response relative to NECA response; effect on NECA potency / antagonism (A3R [3]): no effect; Basal (A3R [3]; 1 µM compound): 109.5 ±4.9 % 10 µM forskolin inhibition, relative to NECA; True Basal (A3R [3]; [5]): 117.7 ±0.9; Span (A3R [3]; 10 µM compound): 107.4 ±5.7; Emin (A3R [3]; 10 µM compound): 23.4 ±4.5 % 10 µM forskolin response relative to NECA response; effect on NECA potency (A3R [3]): reduce the NECA potency; Basal (A3R [3]; 10 µM compound): 130.8 ±3.3 % 10 µM forskolin inhibition, relative to NECA; outcome of cAMP-based screen (A3R [1]): no activity
64.14 ±1.73 %10 μM forskolin response	-3.82 %10 μM forskolin response	CCOC(=O)CC(=O)Nc1ccsc1C(N)=O [Compound K28]	> 100 µM	18 µM	30 µM	
71.56 ±3.54 %10 μM forskolin response	-11.24 %10 μM forskolin response	CCC(C)CC(=O)Nc1ccsc1C(N)=O (stereo not drawn) [Compound K35]	27.4 µM	7.33 µM	> 30 µM	
